Series [1] deals with Xanthomonas oryzae. The settings on record: stated in the literature; cited from earlier work.

As usually defined, the melting point is the temperature, or range, at which the solid turns liquid. Take `CN(C)c1ncc2nnc([C@@H]3O[C@H](COC(=O)c4ccccc4)[C@@H](OC(=O)c4ccccc4)[C@H]3OC(=O)c3ccccc3)n2n1` [If, 6-Dimethylamino-3-(2′,3′,5′-tri-O-benzoyl-β-ribofuranosyl)-1,2,4-triazolo-[3,4-f]-1,2,4-triazine]: the melting point lay in the range of 79 to 80 °C.

Turning to `CN(C)c1ncc2nnc([C@@H]3O[C@H](CO)[C@@H](O)[C@H]3O)n2n1` [Ig, 6-Dimethylamino-3-β-ribofuranosyl-1,2,4-triazolo[3,4-f]-1,2,4-triazine], the melting point lay in the range of 171 to 173 °C.

As to `OC[C@H]1O[C@@H](c2n[nH]c3cncnc23)[C@H](O)[C@@H]1O` [Ib, 3-β-D-Ribofuranosyl-1H-pyrazolo[4,3-d]pyrimidine], the melting point was in the range of 227 to 228 °C. Also, the “action against Xanthomonas oryzae” value in series [1] is “fungicidal action”.

These data come from patent US7368437B1, “Bicyclic heterocycles, processes for their preparation and their use as herbicides and pharmaceutical agents” (Bayer CropScience AG, priority 1999, dated 2008).
